The text below walks through data of patent US7358258B2, “Prodrugs of an ERK protein kinase inhibitor” (Vertex Pharmaceuticals Incorporated, priority 2004, dated 2008).

In brackets after ≈: the same amount, converted by molar mass. Structures can show the parent of a compound that is named as a salt.

A short description of this series: Water solubility at the designated pH. The series is classed as physicochemical. The text has this:
As described herein, the present compounds are useful as prodrugs and, accordingly, impart improved physical and/or physiological characteristics over the parent compound. Such characteristics include half-life and water solubility. In certain embodiments, a compound of the present invention provides improvement with regard to one or more physical or physiological characteristics. In other embodiments, a compound of the present invention imparts improvement with regard to one or more physical and physiological characteristics. A summary of the results of comparison between certain compounds of the present invention and the parent compound is set forth in Table 3 below wherein all pharmacokinetic data reported was obtained in rat.
As used herein, the phrase “Relative AUC” refers to the ration of the area under the curve for a compound of the present invention and the area under the curve for the parent compound. Unless otherwise indicated, the data was obtained for the designated compound as the free base. The term “T½ (hr)” refers to the half life of the compound in hours. As used in Table 3, the term “Solubility” relates to the water solubility of the designated compound in mg per mL at the designated pH.

In the case of `CC[C@H](COC(=O)[C@@H](NC)C(C)C)Nc1ncc(C)c(-c2c[nH]c(C(=O)N[C@H](COC(=O)[C@@H](NC)C(C)C)c3cccc(Cl)c3)c2)n1` [I-20 (HCl salt), 3-Methyl-2-methylamino-butyric acid 2-(4-{5-[1-(3-chloro-phenyl)-2-(3-methyl-2-methylamino-butyryloxy)-ethylcarbamoyl]-1H-pyrrol-3-yl}-5-methyl-pyrimidin-2-ylamino)-butyl ester, tris HCl salt], under “water solubility at pH 3.8”, the solubility – broadly, the concentration that dissolves in the medium under given conditions – amounted to 7710 µg/mL.

`CC[C@H](COC(=O)COCCOC)Nc1ncc(C)c(-c2c[nH]c(C(=O)N[C@H](COC(=O)COCCOC)c3cccc(Cl)c3)c2)n1` [I-21 Ms salt] showed a solubility (water solubility at pH 2.5) of 12400 µg/mL.

In the case of `CC[C@H](COC(=O)CCC(=O)O)Nc1ncc(C)c(-c2c[nH]c(C(=O)N[C@H](COC(=O)CCC(=O)O)c3cccc(Cl)c3)c2)n1` [Compound I-18, Succinic acid, mono-[2-(4-{5-[2-(3-carboxy-propionyloxy)-1-(3-chloro-(S)-phenyl)-ethylcarbamyl]-1H-pyrrol-3-yl}-5-methyl-pyrimidin-2-ylamino)-(S)-butyl]ester], the solubility (water solubility at pH 6.87) came to 12600 µg/mL (≈ 19.6 mM).

In the case of `CCC(CO)Nc1ncc(C)c(-c2c[nH]c(C(=O)NC(CO)c3cccc(Cl)c3)c2)n1` (centres unmarked) [Parent, 4-[2-(1-hydroxymethyl-propylamino)-5-methyl-pyrimidin-4-yl]-1H-pyrrole-2-carboxylic acid [1-(3-chloro-phenyl)-2-hydroxy-ethyl]-amide, reference compound], the concentration in solution (water solubility at pH 1) (solubility) came to 4700 µg/mL (≈ 10.6 mM) and the solubility (water solubility at pH 7) was determined as 15 µg/mL (≈ 0.0338 mM).

In turn, `CC[C@H](COC(C)=O)Nc1ncc(C)c(-c2c[nH]c(C(=O)N[C@H](COC(C)=O)c3cccc(Cl)c3)c2)n1` [I-1 (HCl salt)] displayed a solubility (water solubility at pH 2.2) of 19000 µg/mL.

`CC[C@H](COP(=O)(O)O)Nc1ncc(C)c(-c2c[nH]c(C(=O)N[C@H](COP(=O)(O)O)c3cccc(Cl)c3)c2)n1` [I-23 (Na salt)]: the solubility (water solubility at pH 7.15) amounted to 3800 µg/mL.

As to `CC[C@H](COC(=O)[C@@H](N)C(C)C)Nc1ncc(C)c(-c2c[nH]c(C(=O)N[C@H](COC(=O)[C@@H](N)C(C)C)c3cccc(Cl)c3)c2)n1` [Compound I-10, 2-(S)-Amino-3-methyl-butyric acid 2-(4-{5-[2-(2-(S)-amino-3-methyl-butyryloxy)-1-(3-chloro-(S)-phenyl)-ethylcarbamoyl]-1H-pyrrol-3-yl}-5-methyl-pyrimidin-2-ylamino)-(S)-butyl ester], under “water solubility at pH 3.3”, the solubility worked out at 11500 µg/mL (≈ 17.9 mM).
